Source: PubChem BioAssay AID1919004 (Molecular Pharmacology Branch, DTP, NCI, 2023)
“And” between values parts separate entries of the source, which are not always exact repeats. Equal entries are not always repeated.

Test system: 883617-216-R-J1-PDC complex spheroids, growth, % test/control
Assay: Anticancer human tumor 883617-216-R-J1-PDC patient-derived bladder carcinoma cell line growth inhibition [AhR]
Conditions: for viability, T/C: stronger effect = lower value
From the text: Multicellular complex tumor spheroid response to aryl hydrocarbon receptor antagonists in combination with a variety of drugs and investigational agents in selected tumor cell lines
The current study was undertaken to assess response to aryl hydrocarbon receptor antagonists in combination with standard-of-care drugs and investigational agents in solid tumor complex spheroid models. Complex spheroids include a stromal component modeled by human endothelial cells (HUVEC) and fibroblasts modeled by human mesenchymal stem cells (MSCs). The concentration ranges selected for each drug and investigational agent were based upon clinically achievable concentrations if the clinical Cmax of the agent was known.
Compounds. The drugs and investigational agents: BAY 2416964 (NSC825713), GNF351 (NSC835774), CH-223191 (NSC835775), CPI-455 (NSC825282), aza-TdCyd (NSC777586), decitabine (NSC127716), belinostat (NSC758774), entinostat (NSC756642), pevonedistat (NSC761192), tazemetostat (NSC777109), talazoparib (NSC765396), olaparib (NSC753686), selinexor (NSC780203), nedisertib (M3814, NSC802822), bortezomib (NSC756655), venetoclax (NSC766270), doxorubicin (NSC123127), elimusertib (BAY189344, NSC800525), ceralasertib (AZD6738, NSC777638), TAK-243 (NSC785004), alisertib (NSC759677), etoposide (NSC141540), topotecan (NSC609699), eribulin (NSC707389), gemcitabine (NSC613327), carboplatin (NSC241240), cisplatin (NSC119875), and SN-38 (NSC673596) were obtained from the National Cancer Institute (NCI) Developmental Therapeutics Program Chemical Repository (32). The FDA-approved anticancer drug set is available from the Developmental Therapeutics Program at https://dtp.cancer.gov/organization/dscb/obtaining/available plates.htm. […] The stock solutions were prepared in dimethyl sulfoxide (DMSO, Sigma-Aldrich, St. Louis, MO, cat. D2650), except for the platinum compounds which were prepared in saline (Quality Biological, Gaithersburg, MD, cat. 114-055-101), at 800-fold the tested concentration and stored at -70 degrees C prior to their use. All drugs and investigational agents were tested over a range starting from a high concentration at or near the clinical Cmax and decreasing in half-log increments. If the clinical Cmax for an agent had not been determined, the highest concentration tested was 10 microM (Table 1).
Cell Culture. All cells were maintained in an incubator at 37 degrees C and 5% CO2 with 95% humidity. The PDC lines were cultured according to standard operating procedures established by the NCI PDMR (https://pdmr.cancer.gov). Briefly, all PDCs were thawed and cultured in Matrigel-coated flasks prepared with a working solution of 1X Ham's F-12 nutrient mix, without supplementation (Invitrogen, Waltham, MA, cat. 11765054), 100 U/mL penicillin-streptomycin (Invitrogen, cat. 15140122), and 2.5% Matrigel (Corning Inc., Corning, NY, cat. 354248) for the first three passages. All PDCs were cultured in complete DMEM/F-12 media containing advanced DMEM/F-12 (Invitrogen, cat. 12634028), 4.9% defined fetal bovine serum, heat inactivated (HyClone Laboratories Inc., Logan, UT, cat. SH30070.03HI), 389 ng/mL hydrocortisone (Sigma-Aldrich, cat. H4001), 9.7 ng/mL human EGF recombinant protein (Invitrogen, cat. PHG0313), 23.4 microg/mL adenine (Sigma-Aldrich, cat. A2786), 97.3 U/mL penicillin-streptomycin (Invitrogen, cat. 15140122), 1.9 mM L-glutamine (Invitrogen, cat. 25030081), and 9.7 microM Y-27632 dihydrochloride (Tocris Bioscience, Bristol, United Kingdom, cat. 1254). The PDCs were cultured in complete DMEM/F12 media without 10 microM Y-27632 dihydrochloride for at least two passages prior to the screen. The established cell lines NCI-H1341 and […] were cultured in DMEM/F-12, HEPES (Invitrogen, cat. 11330032), 5% defined fetal bovine serum (HyClone Laboratories Inc., cat. SH30070.03), ITS premix universal culture supplement [insulin (5 microg/mL), transferrin (5 microg/mL), and selenious acid (5 ng/mL)] […]

[1] = curve of first compound, second compound 0.1 µM
[2] = curve of first compound, second compound 0.316 µM
[3] = curve of first compound, second compound 1 µM
[4] = curve of first compound, second compound 3.16 µM
[5] = curve of first compound, second compound 10 µM
[6] = second compound 0.1 µM, first compound 0.00316 µM
[7] = second compound 0.1 µM, first compound 0.01 µM
[8] = second compound 0.1 µM, first compound 0.0316 µM
[9] = second compound 0.1 µM, first compound 0.1 µM
[10] = second compound 0.1 µM, first compound 0.316 µM
[11] = second compound 0.1 µM, first compound 1 µM
[12] = second compound 0.316 µM, first compound 0.00316 µM
[13] = second compound 0.316 µM, first compound 0.01 µM
[14] = second compound 0.316 µM, first compound 0.0316 µM
[15] = second compound 0.316 µM, first compound 0.1 µM
[16] = second compound 0.316 µM, first compound 0.316 µM
[17] = second compound 0.316 µM, first compound 1 µM
[18] = second compound 1 µM, first compound 0.00316 µM
[19] = second compound 1 µM, first compound 0.01 µM
[20] = second compound 1 µM, first compound 0.0316 µM
[21] = second compound 1 µM, first compound 0.1 µM
[22] = second compound 1 µM, first compound 0.316 µM
[23] = second compound 1 µM, first compound 1 µM
[24] = second compound 3.16 µM, first compound 0.00316 µM
[25] = second compound 3.16 µM, first compound 0.01 µM
[26] = second compound 3.16 µM, first compound 0.0316 µM
[27] = second compound 3.16 µM, first compound 0.1 µM
[28] = second compound 3.16 µM, first compound 0.316 µM
[29] = second compound 3.16 µM, first compound 1 µM
[30] = second compound 10 µM, first compound 0.00316 µM
[31] = second compound 10 µM, first compound 0.01 µM
[32] = second compound 10 µM, first compound 0.0316 µM
[33] = second compound 10 µM, first compound 0.1 µM
[34] = second compound 10 µM, first compound 0.316 µM
[35] = second compound 10 µM, first compound 1 µM
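Also: exposure lasted 7 days after dosing on day 3 of spheroid growth.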

Nc1ncn(C2CC(O)C(CO)O2)c(=O)n1 (stereo unspecified) + CC(CO)NC(=O)c1cc(-c2ccc(Cl)cc2)nn(-c2cnn(C)c2)c1=O
IC50 [1]: > 1000 nM | IC50 [2]: > 1000 nM | IC50 [3]: > 1000 nM | IC50 [4]: > 1000 nM | IC50 [5]: > 1000 nM | viability, T/C [6]: 101% | viability, T/C [7]: 79.9% | viability, T/C [8]: 76.8% | viability, T/C [9]: 72.5% | viability, T/C [10]: 81.7% | viability, T/C [11]: 82.3% | viability, T/C [12]: 67.2% | viability, T/C [13]: 90.2% | viability, T/C [14]: 101% | viability, T/C [15]: 76.4% | viability, T/C [16]: 71.7% | viability, T/C [17]: 89.7% | viability, T/C [18]: 90.7% | viability, T/C [19]: 60.6% | viability, T/C [20]: 78.8% | viability, T/C [21]: 72.1% | viability, T/C [22]: 75.1% | viability, T/C [23]: 78.8% | viability, T/C [24]: 83.3% | viability, T/C [25]: 61.1% | viability, T/C [26]: 81% | viability, T/C [27]: 76.8% | viability, T/C [28]: 56.8% | viability, T/C [29]: 78.1% | viability, T/C [30]: 59% | viability, T/C [31]: 84.8% | viability, T/C [32]: 115% | viability, T/C [33]: 93.1% | viability, T/C [34]: 75.7% | viability, T/C [35]: 81.2%

O=C(c1cc(Cc2n[nH]c(=O)c3ccccc23)ccc1F)N1CCN(C(=O)C2CC2)CC1
viability, T/C (compound 0.0316 µM): 101% and 100% and 93% | viability, T/C (compound 0.1 µM): 89.1% and 106% and 100% | viability, T/C (compound 0.316 µM): 95.9% and 94.9% and 112% | viability, T/C (compound 1 µM): 85.9% and 97.1% and 102% | viability, T/C (compound 3.16 µM): 88% and 93.1% and 105% | viability, T/C (compound 10 µM): 70.5% and 76.4% and 105% | IC50 (curve of compound): > 10000 nM

Nc1ccccc1NC(=O)c1ccc(CNC(=O)OCc2cccnc2)cc1
viability, T/C (compound 0.0316 µM): 96.9% and 100% and 89.9% | viability, T/C (compound 0.1 µM): 102% and 111% and 88.5% | viability, T/C (compound 0.316 µM): 86.1% and 82.7% and 81.7% | viability, T/C (compound 1 µM): 52.8% and 62.3% and 78.8% | viability, T/C (compound 3.16 µM): 20% and 24.2% and 63.7% | viability, T/C (compound 10 µM): 0.83% and 1.59% and 18.8% | IC50 (curve of compound): 1150 nM and 1390 nM and 4400 nM

Nc1ncn(C2CC(O)C(CO)S2)c(=O)n1 (stereo unspecified)
viability, T/C (compound 0.000949 µM): 101% and 103% and 61.3% | viability, T/C (compound 0.003 µM): 114% and 103% and 79.2% | viability, T/C (compound 0.00949 µM): 93.2% and 103% and 71.2% | viability, T/C (compound 0.03 µM): 97.5% and 101% and 64% | viability, T/C (compound 0.0949 µM): 88.2% and 99% and 72.8% | viability, T/C (compound 0.3 µM): 78.9% and 82.5% and 87.1% | IC50 (curve of compound): > 300 nM

CC1(C)CCC(CN2CCN(c3ccc(C(=O)NS(=O)(=O)c4ccc(NCC5CCOCC5)c([N+](=O)[O-])c4)c(Oc4cnc5[nH]ccc5c4)c3)CC2)=C(c2ccc(Cl)cc2)C1 + CC(CO)NC(=O)c1cc(-c2ccc(Cl)cc2)nn(-c2cnn(C)c2)c1=O
IC50 [1]: > 10000 nM | IC50 [2]: > 10000 nM | IC50 [3]: > 10000 nM | IC50 [4]: > 10000 nM | IC50 [5]: > 10000 nM | viability, T/C [8]: 77% | viability, T/C [9]: 90.8% | viability, T/C [10]: 136% | viability, T/C [11]: 95.4% | viability, T/C (second compound 0.1 µM, first compound 3.16 µM): 90.3% | viability, T/C (second compound 0.1 µM, first compound 10 µM): 59.4% | viability, T/C [14]: 83.2% | viability, T/C [15]: 93.9% | viability, T/C [16]: 102% | viability, T/C [17]: 88.2% | viability, T/C (second compound 0.316 µM, first compound 3.16 µM): 96.9% | viability, T/C (second compound 0.316 µM, first compound 10 µM): 68.5% | viability, T/C [20]: 90.6% | viability, T/C [21]: 114% | viability, T/C [22]: 152% | viability, T/C [23]: 71.4% | viability, T/C (second compound 1 µM, first compound 3.16 µM): 82.4% | viability, T/C (second compound 1 µM, first compound 10 µM): 78.2% | viability, T/C [26]: 79.5% | viability, T/C [27]: 132% | viability, T/C [28]: 97.1% | viability, T/C [29]: 115% | viability, T/C (second compound 3.16 µM, first compound 3.16 µM): 83.4% | viability, T/C (second compound 3.16 µM, first compound 10 µM): 68.7% | viability, T/C [32]: 91.9% | viability, T/C [33]: 143% | viability, T/C [34]: 171% | viability, T/C [35]: 83.9% | viability, T/C (second compound 10 µM, first compound 3.16 µM): 122% | viability, T/C (second compound 10 µM, first compound 10 µM): 103%

CC[C@@]1(O)C(=O)OCc2c1cc1n(c2=O)Cc2cc3c(CN(C)C)c(O)ccc3nc2-1 + Cc1cncc(-c2nc(NCCc3c[nH]c4ccccc34)c3ncn(C(C)C)c3n2)c1
IC50 [1]: > 100 nM | IC50 [2]: > 100 nM | IC50 [3]: > 100 nM | IC50 [4]: > 100 nM | IC50 [5]: < 0.316 nM | viability, T/C (second compound 0.1 µM, first compound 0.000316 µM): 76.2% | viability, T/C (second compound 0.1 µM, first compound 0.001 µM): 75.1% | viability, T/C [6]: 79.8% | viability, T/C [7]: 71% | viability, T/C [8]: 69.8% | viability, T/C [9]: 74.3% | viability, T/C (second compound 0.316 µM, first compound 0.000316 µM): 86.3% | viability, T/C (second compound 0.316 µM, first compound 0.001 µM): 80.7% | viability, T/C [12]: 74.3% | viability, T/C [13]: 79.4% | viability, T/C [14]: 68.1% | viability, T/C [15]: 64.7% | viability, T/C (second compound 1 µM, first compound 0.000316 µM): 93.5% | viability, T/C (second compound 1 µM, first compound 0.001 µM): 93.9% | viability, T/C [18]: 83.9% | viability, T/C [19]: 85.6% | viability, T/C [20]: 88.9% | viability, T/C [21]: 76.7% | viability, T/C (second compound 3.16 µM, first compound 0.000316 µM): 96.6% | viability, T/C (second compound 3.16 µM, first compound 0.001 µM): 84.6% | viability, T/C [24]: 89.7% | viability, T/C [25]: 91.9% | viability, T/C [26]: 84.6% | viability, T/C [27]: 73.1% | viability, T/C (second compound 10 µM, first compound 0.000316 µM): 45.7% | viability, T/C (second compound 10 µM, first compound 0.001 µM): 47.8% | viability, T/C [30]: 47.9% | viability, T/C [31]: 46.8% | viability, T/C [32]: 35.4% | viability, T/C [33]: 32.1%
